One assay has as its system MOLM-13 cells. As to the kind of experiment: Cell viability assay (CellTiter-Glo) in MOLM-13 cells, alone or with gilteritinib. In kind it is cell-based. The conditions noted are these: Homo sapiens, MOLM-13 cells, CellTiter-Glo.
For a further assay, the system named is MV4;11 cells. As to the kind of experiment: Cell viability assay (CellTiter-Glo) in MV4;11 cells, alone or with gilteritinib. Format: cell-based. The settings on record: Homo sapiens, MV4;11 cells, CellTiter-Glo, read-out: MV4.
[1] abbreviates: 72 h, compound alone (without gilteritinib), three days, read-out: MOLM-13 IC50.
The mark [2] stands for this setting: 72 h, with gilteritinib 20 nM, three days, read-out: MOLM-13 IC50 gilteritinib.
The mark [3] stands for this setting: 72 h, compound alone (without gilteritinib), three days, 11 IC50.
Setting [4] is: 72 h, with gilteritinib 10 nM, three days, 11 IC50 gilteritinib.
[5] abbreviates: MOLM-13, 72 h, compound alone (without gilteritinib), three days, read-out: MOLM-13 IC50.
Where [6] appears, read: MOLM-13, 72 h, with gilteritinib 20 nM, three days, read-out: MOLM-13 IC50 gilteritinib.
Setting [7] is: MV4-11, 72 h, compound alone (without gilteritinib), three days, 11 IC50.
Setting [8] is: MV4-11, 72 h, with gilteritinib 10 nM, three days, 11 IC50 gilteritinib.
Setting [9] is: MOLM-13, 72 h, compound with gilteritinib 20 nM, three days, read-out: MOLM-13 IC50 gilteritinib.
[10] abbreviates: MV4-11, 72 h, compound with gilteritinib 10 nM, three days, 11 IC50 gilteritinib.

Our source for the IC50 values is patent publication US20240050428A1 (Cullgen (Shanghai), Inc., priority 2020, published 2024).

SMILES strings stand for the structures. Where two headings read alike, the source gives them in different places.

`O=C1CCC(N2Cc3ccc(CCCCCCC(=O)N4CCC(c5ccccc5)CC4)cc3C2=O)C(=O)N1` (centres unmarked) [GS-099, 3-(1-Oxo-6-(7-oxo-7-(4-phenylpiperidin-1-yl)heptyl)isoindolin-2-yl)piperidine-2,6-dione]: the IC50 was in the range of 100 to 1000 nM in the assay on MOLM-13 cells (setting [1]), 10 to 100 nM in the assay on MOLM-13 cells (setting [2]), 100 to 1000 nM with MV4;11 cells (setting [3]) and 10 to 100 nM in the assay with MV4;11 cells (setting [4]).

As to `Cc1nn([C@H]2C[C@H](CCCNc3ccc4c(c3)C(=O)N(C3CCC(=O)NC3=O)C4=O)C2)cc1-c1cnc2ccc(N3CCOCC3)cc2n1` (some centres unmarked) [GS-399], the IC50 in the assay with MOLM-13 cells (setting [5]), in the assay with MOLM-13 cells (setting [6]), in the assay with MV4;11 cells (setting [7]) and with MV4;11 cells (setting [8]) was below 10 nM in each case.

Regarding `O=C1CCC(N2C(=O)c3ccc(NC[C@H]4C[C@H](n5cc(-c6ccc7c(n6)CCC7)c(C6CC6)n5)C4)cc3C2=O)C(=O)N1` (stereo partly drawn) [GS-616, 5-(((trans-3-(3-Cyclopropyl-4-(6,7-dihydro-5H-cyclopenta[b]pyridin-2-yl)-1H-pyrazol-1-yl)cyclobutyl)methyl)amino)-2-(2,6-dioxopiperidin-3-yl)isoindoline-1,3-dione], the IC50 with MOLM-13 cells (setting [5]) was 10 to 100 nM; in the assay with MOLM-13 cells (setting [9]) it was below 10 nM; with MV4;11 cells (setting [7]), 10 to 100 nM; in the assay with MV4;11 cells (setting [10]) it was below 10 nM.

Consider `O=C1CCC(N2Cc3cc(NC(=O)Cc4cccc(N5CCC(c6ccccc6)CC5)c4)ccc3C2=O)C(=O)N1` (centres unmarked) [GS-501, N-(2-(2,6-Dioxopiperidin-3-yl)-1-oxoisoindolin-5-yl)-2-(3-(4-phenylpiperidin-1-yl)phenyl)acetamide], for which the IC50 in the assay with MOLM-13 cells (setting [1]) is below 10 nM; with MOLM-13 cells (72 h, compound with gilteritinib 20 nM, three days, read-out: MOLM-13 IC50 gilteritinib) it was below 10 nM; with MV4;11 cells (setting [3]), below 10 nM; with MV4;11 cells (72 h, compound with gilteritinib 10 nM, three days, 11 IC50 gilteritinib), below 10 nM.

As to `O=C1CCC(N2C(=O)c3ccc(NC(=O)CCCCC(=O)N4CCC(n5cc(-c6cnc7ccccc7n6)cn5)CC4)cc3C2=O)C(=O)N1` (centres unmarked) [GS-325, N-(2-(2,6-Dioxopiperidin-3-yl)-1,3-dioxoisoindolin-5-yl)-6-oxo-6-(4-(4-(quinoxalin-2-yl)-1H-pyrazol-1-yl)piperidin-1-yl)hexanamide], the IC50 in the assay with MOLM-13 cells (setting [5]) is above 1000 nM; in the assay on MOLM-13 cells (setting [6]) it was 100 to 1000 nM; in the assay on MV4;11 cells (setting [7]), above 1000 nM; in the assay with MV4;11 cells (setting [8]), 100 to 1000 nM.

As for `CN1CCC(c2ccc3ncc(-c4cn(CCCCCCNc5ccc6c(c5)C(=O)N(C5CCC(=O)NC5=O)C6=O)nc4C4CC4)nc3c2)CC1` (centres unmarked) [GS-572, 5-((6-(3-Cyclopropyl-4-(7-(1-methylpiperidin-4-yl)quinoxalin-2-yl)-1H-pyrazol-1-yl)hexyl)amino)-2-(2,6-dioxopiperidin-3-yl)isoindoline-1,3-dione], the IC50 with MOLM-13 cells (setting [5]) is 100 to 1000 nM; with MOLM-13 cells (setting [9]) it was below 10 nM; in the assay with MV4;11 cells (setting [7]) it was 10 to 100 nM; in the assay with MV4;11 cells (setting [10]) it was below 10 nM.

As for `C[C@H]1CN(c2ccc3ncc(-c4cnn([C@H]5C[C@H](CCCNc6ccc7c(c6)C(=O)N(C6CCC(=O)NC6=O)C7=O)C5)c4)nc3c2)CCN1` (stereo partly drawn) [GS-576, 2-(2,6-Dioxopiperidin-3-yl)-5-((3-(trans-3-(4-(7-((S)-3-methylpiperazin-1-yl)quinoxalin-2-yl)-1H-pyrazol-1-yl)cyclobutyl)propyl)amino)isoindoline-1,3-dione], the IC50 with MOLM-13 cells (setting [5]) was 10 to 100 nM; in the assay on MOLM-13 cells (setting [9]) it was below 10 nM; in the assay on MV4;11 cells (setting [7]), 10 to 100 nM; in the assay on MV4;11 cells (setting [10]) it was below 10 nM.

In the case of `O=C1CCC(N2C(=O)c3ccc(NCCNc4cccc(N5CCC(c6nccs6)CC5)c4)cc3C2=O)C(=O)N1` (centres unmarked) [GS-370, 2-(2,6-Dioxopiperidin-3-yl)-5-((2-((3-(4-(thiazol-2-yl)piperidin-1-yl)phenyl)amino)ethyl)amino)isoindoline-1,3-dione], the IC50 with MOLM-13 cells (setting [1]), in the assay on MOLM-13 cells (setting [2]), with MV4;11 cells (setting [3]) and in the assay with MV4;11 cells (setting [4]) was below 10 nM in each case.

Consider `Cc1nn([C@H]2C[C@H](CCCNc3ccc4c(c3)C(=O)N(C3CCC(=O)NC3=O)C4=O)C2)cc1-c1cnc2c(C3CCN(C)CC3)cccc2n1` (stereo partly drawn) [GS-418, 2-(2,6-dioxopiperidin-3-yl)-5-((3-(trans-3-(3-methyl-4-(5-(1-methylpiperidin-4-yl)quinoxalin-2-yl)-1H-pyrazol-1-yl)cyclobutyl)propyl)amino)isoindoline-1,3-dione], for which the IC50 with MOLM-13 cells (setting [5]) was 10 to 100 nM; with MOLM-13 cells (setting [9]), below 10 nM; with MV4;11 cells (setting [7]) it was 10 to 100 nM; in the assay on MV4;11 cells (setting [10]), below 10 nM.

Consider `O=C1CCC(N2C(=O)c3ccc(NCCCCCC(=O)N4CCC(c5cnc6cccc(Br)c6n5)CC4)cc3C2=O)C(=O)N1` (centres unmarked) [GS-060, 5-((6-(4-(8-Bromoquinoxalin-2-yl)piperidin-1-yl)-6-oxohexyl)amino)-2-(2,6-dioxopiperidin-3-yl)isoindoline-1,3-dione], for which the IC50 was below 10 nM in the assay on MOLM-13 cells (setting [5]); 0.06 nM with MOLM-13 cells (MOLM-13, 72 h, with 20 nM gilteritinib, 3 days, read-out: MOLM-13 IC50 gilteritinib); below 10 nM with MOLM-13 cells (setting [6]); 3.7 nM with MOLM-13 cells (MOLM-13, 72 h, without gilteritinib, 3 days, read-out: MOLM-13 IC50); below 10 nM with MV4;11 cells (setting [7]); below 10 nM in the assay with MV4;11 cells (setting [8]). In the assay on MV4;11 cells (MV4-11, 72 h, without gilteritinib, 3 days, 11 IC50), the IC50 is below 1 nM.

As to `COc1ccnc(-c2cn([C@H]3C[C@H](CNc4ccc5c(c4)C(=O)N(C4CCC(=O)NC4=O)C5=O)C3)nc2C2CC2)c1` (stereo partly drawn) [GS-254, 5-(((trans-3-(3-Cyclopropyl-4-(4-methoxypyridin-2-yl)-1H-pyrazol-1-yl)cyclobutyl)methyl)amino)-2-(2,6-dioxopiperidin-3-yl)isoindoline-1,3-dione], the IC50 in the assay on MOLM-13 cells (setting [5]) was 10 to 100 nM; with MOLM-13 cells (setting [6]), below 10 nM; with MV4;11 cells (setting [7]) it was 10 to 100 nM; in the assay with MV4;11 cells (setting [8]) it was below 10 nM.

In the case of `O=C1CCC(N2C(=O)c3ccc(NC[C@H]4C[C@H](n5cc(-c6ncccc6F)c(C6CC6)n5)C4)cc3C2=O)C(=O)N1` (stereo partly drawn) [GS-296, 5-(((trans-3-(3-Cyclopropyl-4-(3-fluoropyridin-2-yl)-1H-pyrazol-1-yl)cyclobutyl)methyl)amino)-2-(2,6-dioxopiperidin-3-yl)isoindoline-1,3-dione], the IC50 lay in the range of 100 to 1000 nM with MOLM-13 cells (setting [5]), 10 to 100 nM in the assay on MOLM-13 cells (setting [6]), 10 to 100 nM in the assay on MV4;11 cells (setting [7]) and 10 to 100 nM in the assay with MV4;11 cells (setting [8]).

For the compound `Cc1nn(C2CC(CCCNc3ccc4c(c3)C(=O)N(C3CCC(=O)NC3=O)C4=O)C2)c(C)c1-c1cnc2ccccc2n1` (centres unmarked) [GS-167, 5-((3-(3-(3,5-Dimethyl-4-(quinoxalin-2-yl)-1H-pyrazol-1-yl)cyclobutyl)propyl)amino)-2-(2,6-dioxopiperidin-3-yl)isoindoline-1,3-dione], the IC50 in the assay with MOLM-13 cells (setting [5]) was above 1000 nM; with MOLM-13 cells (setting [6]), below 10 nM; in the assay on MV4;11 cells (setting [7]), above 1000 nM; in the assay with MV4;11 cells (setting [8]) it was 100 to 1000 nM.

As for `O=C1CCC(N2Cc3c(Nc4ccnc(NCCCN5CCC(n6cc(-c7cnc8ccccc8n7)cn6)CC5)n4)cccc3C2=O)C(=O)N1` (centres unmarked) [GS-088, 3-(1-Oxo-4-((2-((3-(4-(4-(quinoxalin-2-yl)-1H-pyrazol-1-yl)piperidin-1-yl)propyl)amino)pyrimidin-4-yl)amino)isoindolin-2-yl)piperidine-2,6-dione], the IC50 in the assay with MOLM-13 cells (setting [5]), in the assay on MOLM-13 cells (setting [6]), in the assay on MV4;11 cells (setting [7]) and in the assay on MV4;11 cells (setting [8]) was above 1000 nM each time.

On to `O=C1CCC(N2C(=O)c3ccc(NC[C@H]4C[C@H](n5cc(-c6cccc(NC7CCC7)n6)c(C6CC6)n5)C4)cc3C2=O)C(=O)N1` (stereo partly drawn) [GS-258, 5-(((trans-3-(4-(6-(Cyclobutylamino)pyridin-2-yl)-3-cyclopropyl-1H-pyrazol-1-yl)cyclobutyl)methyl)amino)-2-(2,6-dioxopiperidin-3-yl)isoindoline-1,3-dione], for which the IC50 in the assay with MOLM-13 cells (setting [5]) is above 1000 nM; with MOLM-13 cells (setting [6]), 10 to 100 nM; with MV4;11 cells (setting [7]), 100 to 1000 nM; in the assay with MV4;11 cells (setting [8]), 10 to 100 nM.

Consider `O=C1CCC(N2C(=O)c3ccc(NCCCCCCN4CCC(C5CCC(O)CC5)CC4)cc3C2=O)C(=O)N1` (centres unmarked) [GS-335, 2-(2,6-Dioxopiperidin-3-yl)-5-((6-(4-(4-hydroxycyclohexyl)piperidin-1-yl)hexyl)amino)isoindoline-1,3-dione], for which the IC50 in the assay with MOLM-13 cells (setting [5]) is above 1000 nM; in the assay on MOLM-13 cells (setting [6]), 100 to 1000 nM; in the assay on MV4;11 cells (setting [7]), above 1000 nM; in the assay with MV4;11 cells (setting [8]), above 1000 nM.

In the case of `O=C1CCC(N2C(=O)c3ccc(NC[C@H]4C[C@H](n5cc(-c6cc(NC7CCNCC7)ccn6)c(C6CC6)n5)C4)cc3C2=O)C(=O)N1` (stereo partly drawn) [GS-294, 5-(((trans-3-(3-Cyclopropyl-4-(4-(piperidin-4-ylamino)pyridin-2-yl)-1H-pyrazol-1-yl)cyclobutyl)methyl)amino)-2-(2,6-dioxopiperidin-3-yl)isoindoline-1,3-dione], the IC50 in the assay with MOLM-13 cells (setting [5]), in the assay on MOLM-13 cells (setting [6]), with MV4;11 cells (setting [7]) and in the assay on MV4;11 cells (setting [8]) was above 1000 nM in each case.
